These results are taken from patent US20240261312A1 (priority 2021, published 2024).

Values joined by “and” are separate entries in the source; they are usually repeats but may differ in a detail not shown here. Equal values may be shown once. Read-outs that look alike come from different tables or passages of the source.

For data set [1] the following is noted: in cats; cited from earlier work.
The conditions of data set [2]: in adult dogs; cited from earlier work.
The conditions of data set [3]: cited from earlier work.
The conditions of data set [4]: in turkeys; cited from earlier work.
The conditions of data set [5]: in horses; cited from earlier work.
The conditions of data set [6]: cited from earlier work. The source holds these as a separate data set.
In another data set the test system is bovine coronavirus (BCV). Type of data set: cell-based. The following applies: HRT cells, therapeutic.
Data set [7] deals with Human adenovirus (HAdv-C5). Briefly: Antiviral activity against human adenovirus. Type of data set: cell-based.
Data set [8] relates to Alkhuma hemorrhagic fever virus. Type of data set: cell-based.
Another data set has as its system murine coronavirus. The conditions noted are these: reported; cited from earlier work.
The test system of another data set is rhinovirus. As to the kind of experiment: Antiviral activity against rhinovirus. The conditions noted are these: concentrations and assays employed herein. Type of data set: cell-based.
A further data set concerns HRT cells. The following applies: concentrations of up to 1.0 microg/mL.
Data set [9] has as its system Omsk hemorrhagic fever virus. Type of data set: cell-based.
Data set [10] has as its system bovine viral diarrhea virus (BVDV). Format: cell-based. The following applies: MDBK cells, 48-h time point.
In data set [11] the test system is Kyasanur forest disease virus. Format: cell-based.
For another data set, the system named is MDBK cells. The following applies: concentrations of up to 1.0 microg/mL.
For a further data set, the system named is cells. The following applies: up to concentrations of 1 microg/mL.
A further data set deals with BT cells. The following applies: concentrations of up to 1.0 microg/mL.
The next data set concerns dengue fever virus. Briefly: Antiviral activity against dengue fever virus. Type of data set: cell-based.
The subject of data set [12] is bovine viral diarrhea virus (BVDV). Type of data set: cell-based. The conditions noted are these: 30 min preincubation, 0.1 to 1.0 ug/ml oleandrin.
A further data set has as its system MARC 145 cells. The following applies: concentrations of up to 1.0 microg/mL.

The half-life is the time in which the quantity being followed falls by half. Consider `C[C@H]1O[C@@H](O[C@H]2[C@@H](O)C[C@H](O[C@H]3[C@@H](O)C[C@H](O[C@H]4CC[C@@]5(C)[C@H](CC[C@@H]6[C@@H]5C[C@@H](O)[C@]5(C)[C@@H](C7=CC(=O)OC7)CC[C@]65O)C4)O[C@@H]3C)O[C@@H]2C)C[C@H](O)[C@@H]1O` [digoxin], for which the half-life in data set [1] was 9 to 12 h; in data set [2], 4 to 6 h; in data set [3] (in ewes and lambs), 13 to 15 h; in data set [3] (in sheep), 7 to 8 h; in [4], 10 to 12 h; in [5], 16 to 18 h and 10 to 23 h. Also, the half-life is 5 to 7 h in data set [6] (in calves) and 7 to 9 h in [6] (in cattle).

Consider `CO[C@H]1C[C@H](O[C@H]2CC[C@@]3(C)[C@H](CC[C@@H]4[C@@H]3CC[C@]3(C)[C@@H](C5=CC(=O)OC5)[C@@H](OC(C)=O)C[C@]43O)C2)O[C@@H](C)[C@@H]1O` [oleandrin], for which the “concentration range over which efficacious” value in the data set on bovine coronavirus (BCV) is at least 0.01 µg/mL. The antiviral activity entry (in data set [7]; in [8]; in the data set on murine coronavirus; in data set [9]; in data set [11]; with dengue fever virus) was “inactive” each time. Moreover, the “antiviral activity (inhibition of viral replication)” value in the data set on rhinovirus was “inactive”. The “toxicity to HRT cells” value in the data set on HRT cells was “not toxic”. Besides, the “reduction of viral infectivity relative to control” value in [10] is reported as 98-100%. Also, the “toxicity to MDBK cells” value in the data set with MDBK cells is “not toxic”. In the data set with cells, the “toxicity by release of lactate dehydrogenase” value is recorded as “no additional toxicity over control vehicle”. Moreover, the “toxicity to BT cells” value with BT cells is given as “not toxic”. Moreover, in data set [12], the “inhibition of infectivity of progeny” value is 85-93%. The “toxicity to MARC 145 cells” value in the data set with MARC 145 cells is reported as “not toxic”.
